Measured values: patent US20030203963A1, “Antimicrobial agent” (priority 2001, published 2003)

What was measured:
Lb. sake A10 = test: Bioscreen growth inhibition test; assay type: cell-based, Lactobacillus sake; settings: for APP level causing significant inhibition / APP level causing total inhibition: BS010411, 24 h at 30° C.
Experimental: (§1) For broth cultures and Bioscreen testing most bacteria were grown in Brain Heart Infusion (BHI, Oxoid, pH 7.4). Lactobacillus sake A10 was grown in de Man, Rogosa, Sharpe medium ([…], Oxoid). Yeasts were grown in Sabouraud Liquid medium (SLM, Oxoid). Most bacteria were cultured at 30° C. Lactic acid bacteria were grown on solid medium in enriched CO2 atmosphere. Clostridium species were grown in Reinforced Clostridial Medium (RCM) at 37° C. anaerobically. Brochothrix thermosphacta fungi and yeasts were grown at 25° C. Fungi were cultured on Malt Extract Agar (MEA, Oxoid).
(§2) An automated Microbiology Reader Bioscreen C was used to measure growth curves of the strains in the presence and absence of APP. The Bioscreen C measures the development of turbidity (i.e. growth) kinetically by vertical photometry in 200 wells of a honeycomb microtitre plate, simultaneously. The system consists of a Bioscreen C analyser, which is an incubator and measurement unit, integrated with a PC, software (BioLink v 5.30), printer and a ‘Honeycomb 2’ cuvette multiwell plate. Growth curve data can be analysed within the BioLink software or exported to programs such as Excel.
Broth culture media were dispensed in 270 μl volumes into the wells as directed. Serial dilutions of a filter-sterilised APP stock solution were then dispensed into the same wells, as appropriate. The wells were inoculated with 30 μl of an appropriately diluted overnight broth culture or spore suspension, to give a final inoculum level of […]. The tests were incubated in the Bioscreen C for either 24 h at 30° C., or 72 h at 25° C. (depending on the micro-organism under investigation) with readings taken every 20 minutes after the trays were shaken. After the incubation period was complete the data were exported to Excel for analysis.

[1] = tested on: S cerevisiae var. paradoxus H103; test: Bioscreen growth inhibition test; assay type: cell-based, Saccharomyces cerevisiae var. paradoxus; settings: APP 213, BS010420, 72 h/25° C.
Experimental: as §1, §2
Broth culture media were dispensed in 270 μl volumes into the wells as directed. […] (depending on the micro-organism under investigation) with readings taken every 20 minutes after the trays were shaken. […]

Salm Typhimurium S29 = test: Chicken soup trial at 8° C.; assay type: cell-based, Salmonella Typhimurium; settings: chicken soup at 8° C., TCSM010521, APP215
Text: (§3) A local supermarket brand of cream of chicken soup was used as a model food system. 600 g packs were purchased from the local supermarket. This was a ‘fresh home-made type’ of soup that was stored in the chill cabinet, with a short shelf life. It was chosen because it is a rich, nutritious food system containing a range of food components including meat, dairy and vegetable.
(§4) Ingredients were labelled as: chicken stock (water, duck fat, chicken, salt, flavourings, yeast extracts, pork gelatine, glucose syrup, vegetable concentrate, milk protein, sugar, malto-dextrin, vegetable oil, citric acid, lactose, chicken fat), ilk, chicken (9%), cream (8%), onion, potato, vegetable oil, modified maize starch, wheat flour, lemon juice, salt, white pepper. pH 5.912. Protein: 3.3%; carbohydrate: 4.7%; fat: 7.2%; fibre: 0.2%; sodium: 0.1%
(§5) For the test the soup was mixed 2:1 in water (to facilitate sampling and mixing) and sterilised by autoclaving at 121° C. for 15 minutes. For each experiment the pH of the soup was recorded; this was between pH 5.79-5.88.
For TCS010521/8 (incubated at 8° C.), samples were prepared in 27.8 g quantities. 1.5 g of an APP stock solution was added, and the tests inoculated with 0.3 ml of a suitably diluted cell or spore suspension to give a final inoculum of ca. 10^3 cfu/g. APP was tested at 0, 500 and 1000 ppm, and batch number APP20010213 (at 169 mg/ml) was used. […]

Ps. fluorescens 3756 = test: Chicken soup trial at 20° C.; assay type: cell-based, Pseudomonas fluorescens
Text: as §3, §4, §5
For TCS010430/20 (incubated at 20° C.) samples were prepared in 18.8 g quantities, to which 1 g of a suitable filter-sterilised APP stock solution was added and an appropriately diluted 0.2 ml inoculum. Great care was again taken to ensure homogeneous distribution of the APP and micro-organisms. This test was sampled by viable count test on a daily basis.

[2] = tested on: Byssochlamys fulva 040021; test: Test in apple juice; assay type: cell-based; settings: apple juice (pH 3.42) at 25° C., TAJ010530
Experimental: (§6) 8.9 ml apple juice samples (pH 3.42) were prepared and autoclaved. Batch number APP20010215 (at 138 mg/ml) was used to prepare filter-sterilised stock solutions for 1 ml addition to the juice to achieve 0, 1000, 2000 ppm APP. Tests were inoculated with 100 μl of an appropriately diluted overnight SLM broth of yeast culture or ascospore suspension of Byssochlamys spores prepared earlier. The tests were incubated at 25° C., and examined daily for signs of growth (e.g. turbidity, mycelium development).

Candida parapsilosis 458 = test: Test in apple juice; assay type: cell-based; settings: apple juice (pH 3.42) at 25° C., TAJ010530
Experimental: as §6

[3] = tested on: Rhodotorula mucilaginosa var mucilaginosa CBS8161; test: Test in apple juice; assay type: cell-based; settings: for Growth inhibition: apple juice (pH 3.42) at 25° C., TAJ010530
Experimental: as §6

L. monocytogenes = test: Test in milk; assay type: cell-based, Listeria monocytogenes; settings: 2000 ppm, TMGB010605
Experimental: 8.9 ml samples of UHT milk containing 0.5% glucose and the indicator bromocresol purple (0.01%) were prepared and sterilised by autoclaving. The pH before APP addition was pH 6.65. Appropriate stock solutions of APP batch number APP20010215 (at 138 mg/ml) were prepared and filter sterilised. 1 ml of each was added to the milk to prepare tests containing 0, 1000 and 2000 ppm APP. Tests were then inoculated with 100 μl of diluted overnight broth cultures or spore suspensions to give a final inoculum level of ca. 10^3 cfu/ml. These and uninoculated tests were incubated at 20 and 8° C. and examined daily for visible changes compared to uninoculated control.

[4] = cited from earlier work
[5] = 2000 ppm, chicken soup at 20° C., TCSM010430, APP20010213

## O=C1CC(CO)OC=C1O (stereo not drawn) [APP, Ascopyrone P]
Lb. sake A10; APP20010213
  APP level causing significant inhibition: 250 ppm
  APP level causing total inhibition: 500 ppm
Lb. sake A10; APP20010215
  APP level causing significant inhibition: 250 ppm
  APP level causing total inhibition: 500 ppm
Lb. sake A10; Lab media at optimum temperature
  Total inhibition (effect on growth of target organism by 2000 ppm APP): Lb. sake
[1]
  APP level causing significant inhibition: 2000
  APP level causing total inhibition: >4000
Salm Typhimurium S29; 500 ppm
  Total inhibition for: Total inhibition by 500 ppm for 25 d
Salm Typhimurium S29; 1000 ppm
  Total inhibition for: Total inhibition by 1000 ppm for >27 d
Ps. fluorescens 3756; 1000 ppm, chicken soup at 20° C., TCSM010430, APP20010213
  Effect on growth: No significant effect with 1000 ppm
Ps. fluorescens 3756; [5]
  Counts: undetectable).
  Total inhibition for: Total inhibition by 2000 ppm for >42 days (counts
Ps. fluorescens 3756; Chicken soup at 20° C. pH 5.8
  Total inhibition (effect on growth of target organism by 2000 ppm APP): Ps. fluorescens
[2]; 1000 ppm
  Growth inhibition: No growth inhibition
[2]; 2000 ppm
  Growth inhibition: No growth inhibition
Candida parapsilosis 458; 1000 ppm
  Growth inhibition: No growth inhibition
Candida parapsilosis 458; 2000 ppm
  Growth inhibition: No growth inhibition
[3]; 1000 ppm
  Growth inhibition: No growth inhibition
[3]; 2000 ppm
  Growth inhibition: No growth inhibition
[3]; Apple juice at ambient pH 3.4
  No inhibition (effect on growth of target organism by 2000 ppm APP): Rh. mucilaginosa
L. monocytogenes; milk at 8° C.
  Control of growth: No control observed
L. monocytogenes; milk at 20° C.
  Control of growth: No control observed
[4]; less stable at increasing pH
  pH at which stable: 1.5-5.5
[4]; pH 11-12.5
  half-life: 5 h
